We go through 2 compounds from patent US9409952B2, “Peptide-compound cyclization method” (Chugai Seiyaku Kabushiki Kaisha, priority 2011, dated 2016).

Each structure is given as a SMILES string. Positions of bridges follow the written chain, without caps; N, C: chain ends. Non-standard residues stand in square brackets, D forms with d. Residues, ends and D or L forms follow the SMILES beside them. ξ: configuration not given here. *: point of attachment. Cha = N[C@@H](CC1CCCCC1)C(=O)O; Thr(3ξ) = CC(O)[C@H](N)C(=O)O; NMeA = CN[C@@H](C)C(=O)O; Piperidide = C1CCN(*)CC1

Data set [1] can be described thus: Identification of the metabolic site in mouse liver microsome (LC/MS). It is filed as in vitro ADME. The note with it: 10 uM, mouse liver microsome 0.5 mg protein/mL, 1 hour, with NADPH. On the procedure:
Compound P-113 cyclized peptide was metabolically reacted at a concentration of 10 uM with a microsome solution prepared at 0.5 mg protein/mL from mouse liver (male, manufactured by XENOTECH, USA) using 100 mM phosphate buffer (pH 7.4) for 1 hour in the presence of NADPH (FIG. 35). After the reaction, deproteinization treatment with acetonitrile was provided, and the resulting metabolites were analyzed with a high resolution LC/MS instrument (Q-TOF Ultima API, manufactured by Waters Corporation, USA). Mass chromatograms of the metabolites are shown below. […] MS/MS spectra of the peaks are shown below, respectively. The metabolites of Peak 1 and Peak 2 were assumed to be hydroxylated in the partial structures containing highly lipophilic side chain cyclohexyl groups. […] The metabolite of Peak 4 was assumed to have a thiol-containing site oxidized. Taking the ease of oxidation of this site into consideration, it was believed that the sulfur atom is likely to be the metabolic site.
Background: Liver microsomes are vesicles of endoplasmic reticulum, rich in cytochrome P450 enzymes.

The conditions of data set [2]: side chain carboxyl group, phenolic hydroxy group or tetrazole; cited from earlier work.

As to `CC(C)C[C@@H]1NC(=O)CSC[C@@H](C(=O)N[C@@H](CC2CCCCC2)C(=O)N2CCCCC2)NC(=O)[C@H](C)NC(=O)[C@H](C(C)O)NC(=O)[C@H]([C@@H](C)O)NC(=O)[C@H](CC2CCCCC2)NC(=O)[C@H](C)N(C)C1=O` (stereo partly drawn) [Compound P-113, Ac*-Leu-MeAla-Cha-Thr-Thr-Ala-Cys*-Cha-piperidine] ({CH2CO}-L[NMeA][Cha]T[Thr(3ξ)]AC[Cha]-Piperidide; thioether N-7), the metabolites detected result in data set [1] is recorded as “Four peaks corresponding to hydroxides”. Regarding `c1nnn[nH]1` [Tetrazole], the “pKa as an acid” value in data set [2] was 5.6.
